Data from patent US12144881B2, “Cosmetic composition containing α-mangostin, method for preparation, and uses thereof” (priority 2018, dated 2024).

Assays:
[1] = Photolysis of butyl methoxydibenzoylmethane under sunlight and its inhibition by α-mangostin (absorbance at 357 nm); type: physicochemical; conditions: for M value: M=Bi/Ai, butyl methoxydibenzoylmethane remaining with α-mangostin vs control
Protocol: Instrument and equipment: Model 751-GW spectrophotometer; and FA1004 electronic balance. Reagents: butyl methoxydibenzoylmethane, from Shanghai SIMP Co., Ltd.; and an α-mangostin sample. • (6) Formulation of standard stock solutions of butyl methoxydibenzoylmethane and the sample: 20.0 mg of butyl methoxydibenzoylmethane and α-mangostin were weighed separately, and diluted with a specific mixed solvent (an acetone-water mixed solvent with a ratio by volume of acetone to water of 5:1, hereinafter referred to as mixed solvent) to a volume of 10 ml. • (7) Formulation of reference solutions of butyl methoxydibenzoylmethane and the sample: The mixed solvent was used as the reference solution of butyl methoxydibenzoylmethane. 0.1 ml of the standard stock solution of the α-mangostin sample was drawn, and diluted with the mixed solvent to a volume of 10 ml, as the reference solution of the sample. • (8) Formulation of standard working solutions (20 μg/ml) of butyl methoxydibenzoylmethane and the sample: 0.1 ml of the standard stock solution of butyl methoxydibenzoylmethane was drawn and diluted with the mixed solvent to a volume of 10 ml. 0.1 ml aliquots of the standard stock solution of the α-mangostin sample were drawn separately, and added separately to 0.1 ml aliquots of the standard stock solution of butyl methoxydibenzoylmethane, and then diluted with the mixed solvent to a volume of 10 ml. • (9) Reference solutions and standard working solutions of different concentrations of rutin were formulated according to Steps (2) and (3). • (10) Determination of the photolysis rate and photolysis inhibition rate of butyl methoxydibenzoylmethane: The absorbance of the standard working solution of butyl methoxydibenzoylmethane and the absorbance of butyl methoxydibenzoylmethane in the α-mangostin sample were measured at 357 nm. Then they were subjected to the sunlight exposure, and the absorbance thereof was measured every day. The photolysis rate, the photolysis inhibition rate and the M value of butyl methoxydibenzoylmethane were calculated according to the following formulas: % Photolysis rate=(A0−Ai)/A0×100% % Photolysis inhibition rate=[1−(B0−Bi)/(A0−Ai)]×100 M=Bi/Ai In the formulas, A0 is the absorbance of the standard working solution of butyl methoxydibenzoylmethane; Ai is the absorbance of the standard working solution of butyl methoxydibenzoylmethane after i days of light exposure; B0 is the absorbance of butyl methoxydibenzoylmethane in the standard working solution of the α-mangostin sample; Bi is the absorbance of butyl methoxydibenzoylmethane in the standard working solution of the α-mangostin sample after i days of light exposure; and M is the ratio of the amount of butyl methoxydibenzoylmethane remaining in the α-mangostin sample to the amount of butyl methoxydibenzoylmethane remaining in the control sample without the sample added. For the above α-mangostin sample and butyl methoxydibenzoylmethane, each was determined for the photolysis inhibition rate or the photolysis rate at the same exposure time, to obtain the curve of light exposure time vs. photolysis inhibition rate of the α-mangostin sample (FIG. 3) and the curve of light exposure time vs. photolysis rate of butyl methoxydibenzoylmethane (FIG. 2).

[2] = Oxygen Radical Absorbance Capacity (ORAC) assay against peroxyl radicals; conditions: trolox equivalent
Protocol: (§1) Test Method: Oxygen Radical Absorbance Capacity (ORAC) Assay Specific method: An extraction solution containing a solubilizing compound was prepared, the sample was added to the extraction solution to extract the antioxidants present in the sample, and a fluorescent probe was added to the extract, a free radical generator was added to the extract, to detect the decay of the fluorescence intensity of the probe in the sample over time, and calculate the oxidation resistance of the sample based on the decay of the fluorescence intensity of the probe in the sample. The results of ORAC are expressed as micromole trolox equivalent (μmole TE)/gram. Trolox is a vitamin E analog, which is an antioxidant standard substance.

[3] = Oxygen Radical Absorbance Capacity (ORAC) assay against peroxynitrite; conditions: trolox equivalent
Protocol: as §1

[4] = Oxygen Radical Absorbance Capacity (ORAC) assay against single oxygen; conditions: trolox equivalent
Protocol: as §1

[5] = UV absorption spectra in the UV wavelength region; type: physicochemical; conditions: FIG. 1, UVB 290-320 nm and UVA 320-400 nm
Description: The present inventors tested the UV absorbance of α-mangostin, butyl methoxydibenzoylmethane and octyl salicylate in the UV wavelength region separately. […] Therefore, the α-mangostin has obvious advantages over the sunscreen agent octyl salicylate, and has a part of the absorption band which can be complementary to that of octyl salicylate, enhancing the UVB protection effect and increasing the SPF value.

Solubility in water = type: physicochemical; conditions: extracted α-mangostin
[6] = Oxygen Radical Absorbance Capacity (ORAC) assay against hydroxyl radicals; conditions: trolox equivalent
Protocol: as §1

[7] = ORAC 5.0 (sum of five ORAC results); conditions: trolox equivalent
Protocol: Test Method: Oxygen Radical Absorbance Capacity (ORAC) Assay
as §1, with “Specific” for “Test Method: Oxygen Radical Absorbance Capacity (ORAC) Assay Specific”, “sample.” for “sample. The results of ORAC are expressed as micromole trolox equivalent (μmole TE)/gram. Trolox is a vitamin E analog, which is an antioxidant standard substance.”
Note: There are 5 main reactive oxygen species (ROS) in the human body: peroxy radicals, hydroxyl radicals, peroxynitrite, superoxide anions and singlet oxygen.
The results of ORAC are expressed as micromole trolox equivalent (μmole TE)/gram. Trolox is a vitamin E analog, which is an antioxidant standard substance.

[8] = Oxygen Radical Absorbance Capacity (ORAC) assay against oxide anion; conditions: trolox equivalent
Protocol: as §1

For COc1c(O)cc2oc3cc(O)c(CC=C(C)C)c(O)c3c(=O)c2c1CC=C(C)C [α-mangostin], the M value ([1]; Day 1) was 5.77, the M value ([1]; Day 2) was 12.31 and the “inhibitory effect on the photolysis of butyl methoxydibenzoylmethane (in words)” value ([1]; sunlight) was “very good inhibitory effect”. For the same compound, the “Inhibition rate of α-mangostin (photolysis inhibition rate)” value (“Inhibition rate of α-mangostin” for short) ([1]; sunlight, light exposure time 1 d, 20 μg/ml each) was 84.3%, the “Inhibition rate of α-mangostin” value ([1]; sunlight, light exposure time 2 d) was 82.9% and the “Inhibition rate of α-mangostin” value ([1]; sunlight, light exposure time 3 d) was 82.1%. For the same compound, the “Inhibition rate of α-mangostin” value ([1]; sunlight, light exposure time 4 d) was 80.5%, the “Inhibition rate of α-mangostin” value ([1]; sunlight, light exposure time 5 d) was 76.4% and the “ORAC against peroxyl radicals” value [2] was 8,704 μmole TE/gram. For the same compound, the ORAC against peroxynitrite [3] was 404 μmole TE/gram, the “ORAC against single oxygen” value [4] was 262 μmole TE/gram and the “UV absorption (in words)” value [5] was “relatively strong absorption from the UVB range of 290-320 nm to the UVA range of 320-400 nm”. For the same compound, the “solubility in water (in words)” value (Solubility in water) was “poor solubility in water”, the “ORAC against hydroxyl radicals” value [6] was 9,055 μmole TE/gram and the “ORAC 5.0 (sum of above)” value [7] was 31,468 μmole TE/gram. The “ORAC against oxide anion” value [8] was 13,043 μmole TE/gram.
